From PMC11653366, “The conformation of the nSrc specificity-determining loop in the Src SH3 domain is modulated by a WX conserved sequence motif found in SH3 domains” (Frontiers in Molecular Biosciences, 2024)
Values joined by “and” are separate entries in the source; they are usually repeats but may differ in a detail not shown here. Identical values can stand only once. Like-named read-outs stand apart in the source and are kept apart here. Peptide text beside a SMILES is read from it. * marks the point of attachment. FITC = O=C1OC2(c3ccc(O)cc3Oc3cc(O)ccc32)c2ccc(NC(=S)*)cc21; Ahx = NCCCCCC(=O)O

Tests used:
SrcAbl SH3 = molecular target: T1, SrcAbl SH3 (Homo sapiens, UniProt P12931, D120E/E100D/E118N/E96V/R98S/S97A/T101N/T117H/T99G); assay: Fluorescence anisotropy binding, SrcAbl SH3 chimera (Src SH3 with Abl RT and nSrc loops); conditions: 30 nM fluorescent peptide, running buffer + 0.1 mg/mL BSA + 0.5 mM Thesit, average of triplicate experiments
T1 construct: His6-SUMO (N, cleaved yes); made in house; host or cells: Escherichia coli BL21 DE3

W122C SrcAbl SH3 = molecular target: T2, W122C SrcAbl SH3 (Homo sapiens, UniProt P12931, D120E/E100D/E118N/E96V/R98S/S97A/T101N/T117H/T99G/W122C); assay: Fluorescence anisotropy binding, W122C SrcAbl SH3; conditions: 30 nM fluorescent peptide, running buffer + 0.1 mg/mL BSA + 0.5 mM Thesit, average of triplicate experiments
T2 construct: His6-SUMO (N, cleaved yes); made in house; host or cells: Escherichia coli BL21 DE3
Source text: (§1) Therefore, we wanted to engineer chimeric proteins to test if these loops alone could mediate specificity switching. In our chimeras, we swapped both the RT (sequence: ^96ESRTET^101) and nSrc (^117TEGD^120) loops of Src with the RT (^73VASGDN^78) and nSrc (^95HNGE^98) loop sequences of Abl, and vice versa in each SH3 domain. We termed the resulting proteins, SrcAbl and AblSrc, where the subscript indicates the sequence identity of both the RT and nSrc loops.
(§2) Sequences corresponding to the Abl and Src SH3 (residues 84-145, UniProt ID SRC_HUMAN) domains were used for the wild-type SH3 domains. All proteins were expressed as His6-SUMO fusion proteins using the pET28a (+) plasmid (Genscript). […]
(§3) Briefly, plasmids were transformed into BL21 DE3 chemically competent Escherichia coli cells. […] SDS-PAGE was used to assess protein purity and the absorbance at λ = 280 nm with the calculated extinction coefficient (s), by Expasy ProtParam, was used to calculate protein concentration ([Wilkins et al., 1999]).
(§4) Fluorescence anisotropy assays were performed using a BioTek Synergy H1 plate reader, as previously described [([Tahti et al., 2023]; [Gao et al., 2020]; [Wofford et al., 2021]; [Valgardson et al., 2019])]. […] Determined K D values were the average calculated from triplicate experiments ([Cushing et al., 2008]). […]

Abl SH3 [1] = molecular target: T3, Abl SH3 (Homo sapiens, UniProt P00519); assay: Fluorescence anisotropy binding, Abl SH3; conditions: 30 nM fluorescent peptide, running buffer + 0.1 mg/mL BSA + 0.5 mM Thesit, average of triplicate experiments
T3 construct: His6-SUMO (N, cleaved yes); made in house; host or cells: Escherichia coli BL21 DE3
Source text: (§5) Sequences corresponding to the Abl and Src SH3 (residues 84-145, UniProt ID SRC_HUMAN) domains were used for the wild-type SH3 domains. All proteins were expressed as His6-SUMO fusion proteins using the pET28a (+) plasmid (Genscript). Expression and purification protocols were similar to those used previously for other SLiM-binding domains [([Tahti et al., 2023]; [Gao et al., 2020]; [Wofford et al., 2021])]. All sequences used are in the Supporting Information.
(§6) Briefly, plasmids were transformed into BL21 DE3 chemically competent Escherichia coli cells. Selected colonies were grown in Terrific Broth (TB) at 37°C with shaking at 210 rpm. Once an optical density (OD) of 0.6–0.8 at λ = 600 nm was reached, protein expression was induced by the addition of 0.15 mM isopropyl-β-D-1-thiogalactopyranoside (IPTG) for 16–18 h at 18°C. […] SDS-PAGE was used to assess protein purity and the absorbance at λ = 280 nm with the calculated extinction coefficient (s), by Expasy ProtParam, was used to calculate protein concentration ([Wilkins et al., 1999]).
as §4

AblSrc SH3 = molecular target: T4, AblSrc SH3 (Homo sapiens, UniProt P00519, A74S/D77E/E98D/G76T/H95T/N78T/N96E/S75R/V73E); assay: Fluorescence anisotropy binding, AblSrc SH3 chimera (Abl SH3 with Src RT and nSrc loops); conditions: 30 nM fluorescent peptide, running buffer + 0.1 mg/mL BSA + 0.5 mM Thesit, average of triplicate experiments, >1,000 = undetectable
T4 construct: His6-SUMO (N, cleaved yes); made in house; host or cells: Escherichia coli BL21 DE3
T4 sequence (P00519 61-121 V73E/A74S/S75R/G76T/D77E/N78T/H95T/N96E/E98D limits assumed): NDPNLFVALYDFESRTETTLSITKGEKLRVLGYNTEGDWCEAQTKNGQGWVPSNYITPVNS
Source text: as §1, §2, §3, §4

C100W Abl SH3 = molecular target: T5, C100W Abl SH3 (Homo sapiens, UniProt P00519, C100W); assay: Fluorescence anisotropy binding, C100W Abl SH3; conditions: 30 nM fluorescent peptide, running buffer + 0.1 mg/mL BSA + 0.5 mM Thesit, average of triplicate experiments, >1,000 = undetectable
T5 construct: His6-SUMO (N, cleaved yes); made in house; host or cells: Escherichia coli BL21 DE3
Source text: as §5, §6, §4

Src SH3 = molecular target: T6, Src SH3 (Homo sapiens, UniProt P12931); assay: Fluorescence anisotropy binding, Src SH3; conditions: 30 nM fluorescent peptide, running buffer + 0.1 mg/mL BSA + 0.5 mM Thesit, average of triplicate experiments, >1,000 = no binding
T6 construct: His6-SUMO (N, cleaved yes); made in house; host or cells: Escherichia coli BL21 DE3
Method: (§7) Fluorescence anisotropy assays were performed using a BioTek Synergy H1 plate reader, as previously described [([Tahti et al., 2023]; [Gao et al., 2020]; [Wofford et al., 2021]; [Valgardson et al., 2019])]. Solution conditions included running buffer plus 0.1 mg/mL bovine serine albumin (BSA) and 0.5 mM Thesit, with 30 nM fluorescent peptide. Determined K D values were the average calculated from triplicate experiments ([Cushing et al., 2008]). K d values were determined as previously, and as the midpoint between the anisotropy resulting from the free reporter peptide and SH3-peptide complex [([Cushing et al., 2008]; [Vouilleme et al., 2010]; [Amacher et al., 2013]; [Amacher et al., 2014])].

W122C Src SH3 = molecular target: T7, W122C Src SH3 (Homo sapiens, UniProt P12931, W122C); assay: Fluorescence anisotropy binding, W122C Src SH3; conditions: 30 nM fluorescent peptide, running buffer + 0.1 mg/mL BSA + 0.5 mM Thesit, average of triplicate experiments
T7 construct: His6-SUMO (N, cleaved yes); made in house; host or cells: Escherichia coli BL21 DE3
Method: as §7

Abl SH3 [2] = molecular target: T3, Abl SH3; design: method as in Pisabarro and Serrano, 1996; Pisabarro et al., 1998; conditions: Abl SH3, previously published; ref Pisabarro and Serrano, 1996; Pisabarro et al., 1998; read-out: affinity (K D); cited from earlier work
Fyn SH3 = molecular target: Fyn SH3; design: method as in Pisabarro and Serrano, 1996; Pisabarro et al., 1998; conditions: Fyn SH3, previously published; ref Pisabarro and Serrano, 1996; Pisabarro et al., 1998; read-out: affinity (K D); cited from earlier work

T3 sequence (P00519 61-121 limits assumed): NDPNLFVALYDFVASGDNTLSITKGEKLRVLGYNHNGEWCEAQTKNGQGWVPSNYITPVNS
T5 sequence (P00519 61-121 C100W limits assumed): as the sequence (P00519 61-121 limits assumed) above, with C40W counted along it

## CC(C)C[C@H](NC(=O)CCCCCNC(=S)Nc1ccc2c(c1)C(=O)OC21c2ccc(O)cc2Oc2cc(O)ccc21)C(=O)N[C@@H](C)C(=O)N[C@@H](CO)C(=O)N[C@@H](CCCNC(=N)N)C(=O)N1CCC[C@H]1C(=O)N[C@@H](CC(C)C)C(=O)N1CCC[C@H]1C(=O)N[C@@H](CC(C)C)C(=O)N[C@@H](CC(C)C)C(=O)N1CCC[C@H]1C(=O)O [F*-PLLP]
SrcAbl SH3
  Kd: 140 ± 20 µM
W122C SrcAbl SH3
  Kd: > 1000 µM
Abl SH3 [1]
  Kd: > 1000 µM
AblSrc SH3
  Kd: > 1000 µM
C100W Abl SH3
  Kd: > 1000 µM

## C[C@H](NC(=O)CCCCCNC(=S)Nc1ccc2c(c1)C(=O)OC21c2ccc(O)cc2Oc2cc(O)ccc21)C(=O)N1CCC[C@H]1C(=O)N[C@H](C(=O)N[C@@H](Cc1ccc(O)cc1)C(=O)N[C@@H](CO)C(=O)N1CCC[C@H]1C(=O)N1CCC[C@H]1C(=O)N1CCC[C@H]1C(=O)N1CCC[C@H]1C(=O)N1CCC[C@H]1C(=O)O)[C@@H](C)O [F*-p40] ({FITC-Ahx}-APTYSPPPPP-OH)
Src SH3
  Kd: > 1000 µM
SrcAbl SH3
  Kd: 130 ± 40 µM
W122C Src SH3
  Kd: > 1000 µM
W122C SrcAbl SH3
  Kd: 450 ± 190 µM
Abl SH3 [1]
  Kd: 3.1 ± 0.4 µM
AblSrc SH3
  Kd: 210 ± 30 µM
C100W Abl SH3
  Kd: 55 ± 20 µM

## RAPTMPPPLPP [initial ligand, derived from the 3BP1 protein]
Abl SH3 [2]
  Kd: 30 µM
Fyn SH3
  Kd: 30 µM

## C[C@H](N)C(=O)N1CCC[C@H]1C(=O)N[C@H](C(=O)N[C@@H](Cc1ccc(O)cc1)C(=O)N[C@@H](CO)C(=O)N1CCC[C@H]1C(=O)N1CCC[C@H]1C(=O)N1CCC[C@H]1C(=O)N1CCC[C@H]1C(=O)N1CCC[C@H]1C(=O)O)[C@@H](C)O [p40] (H-APTYSPPPPP-OH; N-terminus and C-terminus assumed)
Src SH3
  Kd: > 1000 µM
Fyn SH3
  Kd: 472 µM and 470 µM
